Assay results published in patent US7291451B2, “Modulation of pericyte proliferation” (XOMA Technology Ltd., priority 2000, dated 2007).

Columns and labels:
[1] = test system: retinal neovascularization; assay: Oxygen-pulse induced retinal neovascularization in newborn rats; assay type: in vivo; conditions: for retinal neovascular score (sum of quadrant scores): P18, vehicle 6.41
Method: In contrast to the assay for anti-angiogenesis effect of BPI protein products in neonatal mice described in part A above, experiments were conducted in newborn rats Crj:CD(SD)IGS (Charles River, Japan). Unlike the method described in part A above of producing ischemia-induced retinal neovascularization by exposing neonatal mice to a constant level of oxygen at 75±2% for 5 days, newborn rats were exposed to oxygen pulses as described below.
The newborn rats within a few hours after birth were put into the oxygen chamber (780 mm×520 mm×520 mm). The oxygen level in the experimental chamber was controlled with a computer program (Oxycycler, Reming Bioinstruments, N.Y., US). The oxygen level was maintained at 80% for 20.5 hours, then rapidly dropped to 21% for 30 minutes before a gradual return to 80% during the following 3 hours. The program was run for 11 cycles (24 hour per cycle). At the end of 11th cycle (postnatal day 11 (P11)), mothers and newborn rats were transferred to room air condition and kept for 7 days. For a seven day period step newborn rats were injected intraperitoneally with XMP.679 at doses of 2, 6 and 20 mg/kg. On P18, the rats were sacrificed, and the left eyes were enucleated. The eyes were fixed in 4% paraformaldehyde (PFA) for 1 hour. Using scissors, the cornea and sclera were removed from the eyecup. The lens was removed with tweezers, and the vitreous was thoroughly removed with tweezers and scissors. The semi-spherical retina was fixed in 4% PFA and stained, using the method of adenosine diphosphatase (ADPase) histochemistry. Abnormal neovascularization was assessed on P18 by histochemically staining retina for ADPase activity. This procedure preferentially stains retinal vascular endothelium and microglia in rats of this age. The retina was incubated in ADPase incubation medium at 37° C. for 1 hour with gentle agitation. It was then washed thoroughly in cold saline, and treated in a 1:10 dilution of ammonium sulfide for 1 minute. The retina was then washed in […] to remove sulfide. The retina was placed in a small drop of liquid on a saline-coated slide. […] The retina was put in a layer of Perma Fluor® covered with a cover glass. Glomerular buds (tiny popcorn) upon the surface of the regina, fan shaped neovascular fronds, and ridges (vascular complexes that cause a distinct elongate elevation of the retinal surface, and which usually contain several vessels running parallel to the ciliary body) were identified.
Criteria for scoring neovascular intensity were as follows: 0: Nothing; 1: <5 buds; 2: >5 buds, or a frond; 3: Ridge<half of quadrant; or 4: Ridge>half of quadrant. The retinal neovascular scores were equal to the sum of quadrant scores. […]

[2] = test system: MAP kinase phosphorylation; assay: MAP kinase phosphorylation in BRPC; assay type: cell-based, bovine; conditions: 5 μg/ml, 1 to 60 minutes
Method: Experiments were also performed in which the level of MAP kinase phosphorylation was determined in BRPC treated with 75 μg/ml rBPI21 or 5 μg/ml XMP.679. […] These observations indicate that exemplary BPI protein products rBPI21 and, to a lesser extent, XMP.679, enhance MAP kinase phosphorylation in BRPC.

[3] = test system: bovine retinal endothelial cells (BREC); assay: Cell growth assay (DNA content) in bovine retinal endothelial cells; assay type: cell-based
Method: Primary cultures of bovine retinal endothelial cells (BREC) were isolated by homogenization and a series of filtration steps as described in King et al., J. Clin. Invest., 1985, 75:1028-36. BREC were subsequently cultured with endothelial cell basal medium (EBM; Clonetics, San Diego, Calif.). supplemented with 10% plasma-derived horse serum (PDHS), 50 mg/l heparin, and 50 μg/ml endothelial cell growth factor (ECGF, Roche, Indianapolis, Ind.). Cells were characterized for homogeneity by their immunoreactivity with anti-factor VIII antibody. Cells remained morphologically unchanged under these conditions, as confirmed by light microscopy. Only cells from passages 2 through 7 were used for the experiments.
(§1) A cell growth assay was performed as follows: Cells were plated onto 12-well culture plates and incubated overnight. The cells were treated with vehicle, vascular endothelial growth factor (VEGF, R & D Systems, Minneapolis, Minn.) at 25 ng/ml, serum, compounds, or combinations thereof. The medium is changed during the incubation period, with fresh medium and fresh test compound added every 2 days. After incubation for indicated time period at 37° C., the cells were lysed in 0.1% SDS and DNA content was measured by means of Hoechst-33258 dye and a fluorometer (model TKO-100, Hoefer Scientific Instruments, San Francisco, Calif.). It has been shown that total cellular DNA content measured in this manner correlates closely with actual cell number as determined by hemocytometer counting of trypsinized cells.
Determinations were performed in triplicate and all experiments were repeated at least three times. Results are expressed as the mean ±standard deviation, unless otherwise indicated. Statistical analysis employed Student's t-test or analysis of variance to compare quantitative data populations with normal distributions and equal variance. Data were analyzed using the Mann-Whitney rank sum test or the Kruskal-Wallis test for populations with non-normal distributions or unequal variance. A P-value of <0.05 was considered statistically significant.

[4] = test system: Bovine retinal pigment epithelial cells (RPEC); assay: Cell growth assay in bovine retinal pigment epithelial cells; assay type: cell-based; conditions: 15 μg/ml
Method: as §1
Bovine retinal pigment epithelial cells (RPEC) were isolated by gentle scraping after removal of the neural retina and incubation with 0.2% collagenase as described in King et al., Diabetes, 1987, 36:1460-7. RPEC were cultured in DMEM with 5.5 mM glucose and 10% calf serum (CS, Gibco BRL, Grand Island, N.Y.). Cells were cultured in 5% CO2 at 37° C., and media were changed every other days. Cells were characterized for their homogeneity by immunoreactivity with anti-cytokeratin antibody for RPEC. […]

## XMP.679: BPI-derived peptide derived from BPI domain II, SEQ ID NO: 3 (KLFKAQAKAKG; XMP.679; listed as Homo sapiens)
[1]; 2 mg/kg/day intraperitoneal
  retinal neovascular score (sum of quadrant scores): 7.29
[1]; 6 mg/kg/day intraperitoneal
  retinal neovascular score (sum of quadrant scores): 4.59
[1]; 6 mg/kg, differences not statistically significant
  change of retinal neovascularization score versus vehicle: reduced
[1]; 20 mg/kg/day intraperitoneal
  retinal neovascular score (sum of quadrant scores): 5.56
[2]
  effect on MAP kinase phosphorylation: increased MAP kinase phosphorylation over time
[3]; 1 μg/ml compound, with and without VEGF
  effect on DNA content: did not have a significant effect
[3]; VEGF 25 ng/ml plus 1 μg/ml compound
  effect on VEGF-dependent growth: had no effect
[3]; VEGF 25 ng/ml plus 5 and 15 μg/ml compound
  effect on VEGF-dependent growth: totally prevented VEGF-dependent growth
[3]; compound alone, 15 μg/ml, not statistically significant
  effect on growth: slight growth inhibitory effect
[4]
  growth promoting effect: 20 to 30%
